pIC50: −log10 of the molar value.

Sequence of PKBα (P31749 118-480 limits assumed): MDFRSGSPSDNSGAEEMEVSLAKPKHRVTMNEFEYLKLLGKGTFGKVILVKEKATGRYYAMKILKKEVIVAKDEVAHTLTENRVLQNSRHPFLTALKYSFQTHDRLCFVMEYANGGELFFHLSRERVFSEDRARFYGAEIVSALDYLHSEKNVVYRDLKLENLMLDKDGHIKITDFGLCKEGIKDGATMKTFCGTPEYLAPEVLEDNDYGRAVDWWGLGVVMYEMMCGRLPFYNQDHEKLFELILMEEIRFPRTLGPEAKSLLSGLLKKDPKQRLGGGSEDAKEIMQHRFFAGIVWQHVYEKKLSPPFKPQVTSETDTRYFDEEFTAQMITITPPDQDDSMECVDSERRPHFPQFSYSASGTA

For the experiment, the target named is PKBα (Homo sapiens, UniProt P31749). Kind of experiment: PKB kinase assay (P33-labeled ATP, peptide substrate, filter plate). Format: biochemical. Particulars: PKBα enzyme (full length or kinase domain with pleckstrin domain deleted). The source says:
The kinase assay for evaluating PKB activity comprises active PKB enzymes, a PKB specific substrate, and P^33-labeled ATP. […] The phosphorylated substrate was captured by a phosphocellulose membrane filter plate (MLLIPORE) and measured by a Wallac Microbeta liquid scintillation counter (Perkin Elmer).
On to `CS(=O)(=O)NCC#Cc1nc(NC[C@@H](N)Cc2ccc(C(F)(F)F)cc2)sc1-c1ccc2cnccc2c1` [Example 151, N-(3-(2-((S)-2-amino-3-(4-(trifluoromethyl)phenyl)propylamino)-5-(isoquinolin-6-yl)thiazol-4-yl)prop-2-ynyl)methanesulfonamide], for which the pIC50 was 5.00 to 6.00. Next, `CC#Cc1nc(NC[C@@H](N)Cc2ccc(C(F)(F)F)cc2)sc1-c1ccc2c(c1)CC(=O)N2` [Example 152, 5-(2-((S)-2-amino-3-(4-(trifluoromethyl)phenyl)propylamino)-4-(prop-1-ynyl)thiazol-5-yl)indolin-2-one]: above 7.30. Next, `CC#Cc1nc(NC[C@@H](N)Cc2ccc(C(F)(F)F)cc2)sc1-c1ccc2[nH]nc(C)c2c1` [Example 153, N—((S)-2-amino-3-(4-(trifluoromethyl)phenyl)propyl)-5-(3-methyl-1H-indazol-5-yl)-4-(prop-1-ynyl)thiazol-2-amine]: above 7.30. Next, `C/C=C/[C@@H](c1ccc(C(F)(F)F)cc1)[C@H](N)CNc1ncc(-c2ccc3cnccc3c2)s1` [Example 154, N-((2S,3S,E)-2-amino-3-(4-(trifluoromethyl)phenyl)hex-4-enyl)-5-(isoquinolin-6-yl)thiazol-2-amine]: above 7.30; `C/C=C/[C@@H](c1ccc(C(F)(F)F)cc1)[C@H](N)CNc1ncc(-c2ccc3c(c2)CC(=O)N3)s1` [Example 155, 5-(2-((2S,3S,E)-2-amino-3-(4-(trifluoromethyl)phenyl)hex-4-enylamino)thiazol-5-yl)indolin-2-one]: above 7.30. In the case of `CCC[C@@H](c1ccc(C(F)(F)F)cc1)[C@H](N)CNc1ncc(-c2ccc3c(c2)CC(=O)N3)s1` [Example 156, 5-(2-((2S,3S)-2-amino-3-(4-(trifluoromethyl)phenyl)hexylamino)thiazol-5-yl)indolin-2-one], the pIC50 was 6.00 to 7.30. On to `CCC[C@@H](c1ccc(C(F)(F)F)cc1)[C@H](N)CNc1ncc(-c2ccc3cnccc3c2)s1` [Example 157, N-((2S,3S)-2-amino-3-(4-(trifluoromethyl)phenyl)hexyl)-5-(isoquinolin-6-yl)thiazol-2-amine], for which the pIC50 is above 7.30.

As to `N[C@H](CNc1ncc(-c2ccc3c(c2)CC(=O)N3)s1)[C@@H](CO)c1ccc(C(F)(F)F)cc1` [Example 158, 5-(2-((2S,3S)-2-amino-4-hydroxy-3-(4-(trifluoromethyl)phenyl)butylamino)thiazol-5-yl)indolin-2-one], the pIC50 was above 7.30. Take `N[C@H](CNc1ncc(-c2ccc3cnccc3c2)s1)[C@@H](CO)c1ccc(C(F)(F)F)cc1` [Example 159, (2S,3S)-3-amino-4-(5-(isoquinolin-6-yl)thiazol-2-ylamino)-2-(4-(trifluoromethyl)phenyl)butan-1-ol]: the pIC50 was above 7.30.

For the compound `N[C@H](CNc1ncc(-c2ccc3[nH]c(=O)oc3c2)s1)[C@@H](CO)c1ccc(C(F)(F)F)cc1` [Example 160, 6-(2-((2S,3S)-2-amino-4-hydroxy-3-(4-(trifluoromethyl)phenyl)butylamino)thiazol-5-yl)benzo[d]oxazol-2(3H)-one], the pIC50 is above 7.30. Next, `N[C@H](CNc1ncc(-c2ccc3cnccc3c2)s1)Cc1cc(F)cc(F)c1` [Example 161, N—((S)-2-amino-3-(3,5-difluorophenyl)propyl)-5-(isoquinolin-6-yl)thiazol-2-amine]: 6.00 to 7.30; `Cn1c(=O)[nH]c2ccc(-c3cnc(NC[C@@H](N)Cc4cc(F)cc(F)c4)s3)cc21` [Example 162, 6-(2-((S)-2-amino-3-(3,5-difluorophenyl)propylamino)thiazol-5-yl)-1-methyl-1H-benzo[d]imidazol-2(3H)one]: 5.00 to 6.00; `N[C@H](CNc1ncc(-c2ccc3c(c2)CC(=O)N3)s1)Cc1cc(F)cc(F)c1` [Example 163, 5-(2-((S)-2-amino-3-(3,5-difluorophenyl)propylamino)thiazol-5-yl)indolin-2-one]: 5.00 to 6.00. Compound `N[C@H](CNc1ncc(-c2ccc3[nH]c(=O)oc3c2)s1)Cc1cc(F)cc(F)c1` [Example 164, 6-(2-((S)-2-amino-3-(3,5-difluorophenyl)propylamino)thiazol-5-yl)benzo[d]oxazol-2(3H)one] showed a negative logarithm of the IC50 (pIC50) of 6.00 to 7.30.

In turn, `NC(CNc1nc(Cl)c(-c2ccc3cnccc3c2)s1)Cc1ccc(C(F)(F)F)cc1` (stereo not drawn) [Example 165] had a pIC50 of 6.00 to 7.30.

In the case of `N#Cc1ccc(-c2cnc(NC[C@@H](N)Cc3ccc(C(F)(F)F)cc3)s2)cc1F` [Example 166, 4-(2-((S)-2-amino-3-(4-(trifluoromethyl)phenyl)propylamino)thiazol-5-yl)-2-fluorobenzonitrile], the pIC50 was 6.00 to 7.30.

In turn, `Cn1ncc2ccc(-c3cnc(NC[C@@H](N)Cc4ccc(C(F)(F)F)cc4)s3)cc21` [Example 167, N—((S)-2-amino-3-(4-(trifluoromethyl)phenyl)propyl)-5-(1-methyl-1H-indazol-6-yl)thiazol-2-amine] showed a pIC50 of 5.00 to 6.00. In the case of `N[C@H](CNc1nc(C(F)(F)F)c(-c2ccc3cnccc3c2)s1)Cc1ccc(Cl)cc1` [Example 168], the pIC50 was 6.00 to 7.30. The result for `N[C@H](CNc1nc(C2CC2)c(-c2ccc3cnccc3c2)s1)Cc1ccc(C(F)(F)F)cc1` [Example 169] reads 6.00 to 7.30; that for `N[C@H](CNc1ncc(-c2ccc3cnccc3c2)s1)Cc1ccc(C(F)(F)F)nc1` [Example 170], above 7.30. With `N[C@H](CNc1ncc(-c2ccc3c(c2)CC(=O)N3)s1)Cc1ccc(C(F)(F)F)nc1` [Example 171, 5-(2-((S)-2-amino-3-(6-(trifluoromethyl)pyridine-3-yl)propylamino)thiazol-5-yl)indolin-2-one], the pIC50 was above 7.30.

Compound `N[C@H](CNc1ncc(-c2ccc3[nH]c(=O)oc3c2)s1)Cc1ccc(C(F)(F)F)nc1` [Example 172, 6-(2-((S)-2-amino-3-(6-(trifluoromethyl)pyridine-3-yl)propylamino)thiazol-5-yl)benzo[d]oxazol-2(3H)-one] had a pIC50 above 7.30. `COc1cc(C[C@H](N)CNc2ncc(-c3ccc4cnccc4c3)s2)cnc1C(F)(F)F` [Example 173] gave a pIC50 above 7.30. As to `COc1cc(C[C@H](N)CNc2ncc(-c3ccc4c(c3)CC(=O)N4)s2)cnc1C(F)(F)F` [Example 174, 5-(2-((S)-2-amino-3-(5-methoxy-6-(trifluoromethyl)pyridin-3-yl)propylamino)thiazol-5-yl)indolin-2-one], the pIC50 was 6.00 to 7.30. Next, `COc1cc(C[C@H](N)CNc2ncc(-c3ccc4[nH]c(=O)n(C)c4c3)s2)cnc1C(F)(F)F` [Example 175, 6-(2-((S)-2-amino-3-(5-methoxy-6-(trifluoromethyl)pyridin-3-yl)propylamino)thiazol-5-yl)-1-methyl-1H-benzo[d]imidazol-2(3H)-one]: above 7.30. Regarding `NC(CNc1ncc(-c2ccc3c(c2)CC(=O)N3)s1)Cc1ccc(C(F)(F)F)cc1F` (stereo not drawn) [Example 176, 5-(2-(-2-amino-3-(2-fluoro-4-(trifluoromethyl)phenyl)propylamino)thiazol-5-yl)indolin-2-one], the pIC50 was 6.00 to 7.30. In turn, `NC(CNc1ncc(-c2ccc3cnccc3c2)s1)Cc1ccc(C(F)(F)F)cc1F` (stereo not drawn) [Example 177, N-(-2-amino-3-(2-fluoro-4-(trifluoromethyl)phenyl)propyl)-5-(isoquinolin-6-yl)thiazol-2-amine] had a pIC50 above 7.30. The result for `NC(CNc1ncc(-c2ccc3[nH]c(=O)oc3c2)s1)Cc1ccc(C(F)(F)F)cc1F` (stereo not drawn) [Example 178, 6-(2-(-2-amino-3-(2-fluoro-4-(trifluoromethyl)phenyl)propylamino)thiazol-5-yl)benzo[d]oxazol-2(3H)-one] reads above 7.30; that for `NC(CNc1ncc(-c2ccc3c(c2)CC(=O)N3)s1)Cc1ccc(C(F)(F)F)c(F)c1` (stereo not drawn) [Example 179, 5-(2-(-2-amino-3-(3-fluoro-4-(trifluoromethyl)phenyl)propylamino)thiazol-5-yl)indolin-2-one], above 7.30; that for `NC(CNc1ncc(-c2ccc3[nH]c(=O)oc3c2)s1)Cc1ccc(C(F)(F)F)c(F)c1` (stereo not drawn) [Example 181, 6-(2-(2-amino-3-(3-fluoro-4-(trifluoromethyl)phenyl)propylamino)thiazol-5-yl)benzo[d]oxazol-2(3H)-one], above 7.30. Next, `N[C@@H](CNc1ncc(-c2ccc3[nH]c(=O)oc3c2)s1)Cc1ccc(C(F)(F)F)c(F)c1` [Example 182, 6-(2-((R)-2-amino-3-(3-fluoro-4-(trifluoromethyl)phenyl)propylamino)thiazol-5-yl)benzo[d]oxazol-2(3H)-one]: 6.00 to 7.30; `N[C@H](CNc1ncc(-c2ccc3[nH]c(=O)oc3c2)s1)Cc1ccc(C(F)(F)F)c(F)c1` [Example 183, 6-(2-((S)-2-amino-3-(3-fluoro-4-(trifluoromethyl)phenyl)propylamino)thiazol-5-yl)benzo[d]oxazol-2(3H)-one]: above 7.30; `Cn1c(=O)[nH]c2ccc(-c3cnc(NC[C@@H](N)Cc4ccc(C(F)(F)F)c(F)c4)s3)cc21` [Example 184, 6-(2-((S)-2-amino-3-(3-fluoro-4-(trifluoromethyl)phenyl)propylamino)thiazol-5-yl)-1-methyl-1H-benzo[d]imidazol-2(3H)-one]: above 7.30. Next, `N[C@H](CNc1ncc(-c2ccc3c(c2)CC(=O)N3)s1)Cc1ccc(C(F)(F)F)c(F)c1` [Example 185, 5-(2-((S)-2-amino-3-(3-fluoro-4-(trifluoromethyl)phenyl)propylamino)thiazol-5-yl)indolin-2-one]: above 7.30; `N[C@H](CNc1ncc(-c2ccc3[nH]ncc3c2)s1)Cc1ccc(C(F)(F)F)c(F)c1` [Example 186, N—((S)-2-amino-3-(3-fluoro-4-(trifluoromethyl)phenyl)propyl)-5-(1H-indazol-5-yl)thiazol-2-amine]: above 7.30; `NC(CNc1ncc(-c2ccc3[nH]c(=O)oc3c2)s1)Cc1ccc(OC(F)(F)F)cc1` (stereo not drawn) [Example 187, 6-(2-(-2-amino-3-(4-(trifluoromethoxy)phenyl)propylamino)thiazol-5-yl)benzo[d]oxazol-2(3H)-one]: 6.00 to 7.30.

The term pIC50 denotes the negative decadic logarithm of the IC50, by convention in mol/L. A lower pIC50 goes with a high IC50.

These data come from patent publication US8084479B2, “Thiazole compounds and methods of use” (Amgen Inc., priority 2006, dated 2011).
